Test results from ChEMBL document CHEMBL1909046, “DrugMatrix in vitro pharmacology data”.

Legend:
[1] = DRUGMATRIX: Nicotinic Acetylcholine radioligand binding (ligand: [125I] Epibatidine); assay type: cell membranes, Membrane; settings: imr-32; Not Active = under 50% inhibition at 10 µM
[2] = target: T1, Adenosine receptor A3 (Homo sapiens, UniProt P0DMS8); assay type: cell membranes, CHO-K1, Membrane; settings: cho-k1;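 note: radioligand binding assay with AB-MECA serving as the labeled ligand; in other assays of this panel Not Active means under 50% inhibition at 10 µM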
T1 sequence (P0DMS8 whole entry): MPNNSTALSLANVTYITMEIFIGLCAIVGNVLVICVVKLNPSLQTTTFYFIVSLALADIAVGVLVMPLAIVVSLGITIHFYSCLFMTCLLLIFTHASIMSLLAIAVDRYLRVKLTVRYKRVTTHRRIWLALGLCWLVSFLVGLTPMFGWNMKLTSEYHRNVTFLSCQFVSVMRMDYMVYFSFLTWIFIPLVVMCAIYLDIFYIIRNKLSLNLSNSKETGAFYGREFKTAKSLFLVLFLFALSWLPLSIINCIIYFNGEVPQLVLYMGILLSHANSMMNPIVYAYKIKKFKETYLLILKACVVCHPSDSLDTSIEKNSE

[3] = target: T2, Androgen receptor (Rattus norvegicus, UniProt P15207); note: in other assays of this panel Not Active means under 50% inhibition at 10 µM
T2 sequence (P15207 whole entry): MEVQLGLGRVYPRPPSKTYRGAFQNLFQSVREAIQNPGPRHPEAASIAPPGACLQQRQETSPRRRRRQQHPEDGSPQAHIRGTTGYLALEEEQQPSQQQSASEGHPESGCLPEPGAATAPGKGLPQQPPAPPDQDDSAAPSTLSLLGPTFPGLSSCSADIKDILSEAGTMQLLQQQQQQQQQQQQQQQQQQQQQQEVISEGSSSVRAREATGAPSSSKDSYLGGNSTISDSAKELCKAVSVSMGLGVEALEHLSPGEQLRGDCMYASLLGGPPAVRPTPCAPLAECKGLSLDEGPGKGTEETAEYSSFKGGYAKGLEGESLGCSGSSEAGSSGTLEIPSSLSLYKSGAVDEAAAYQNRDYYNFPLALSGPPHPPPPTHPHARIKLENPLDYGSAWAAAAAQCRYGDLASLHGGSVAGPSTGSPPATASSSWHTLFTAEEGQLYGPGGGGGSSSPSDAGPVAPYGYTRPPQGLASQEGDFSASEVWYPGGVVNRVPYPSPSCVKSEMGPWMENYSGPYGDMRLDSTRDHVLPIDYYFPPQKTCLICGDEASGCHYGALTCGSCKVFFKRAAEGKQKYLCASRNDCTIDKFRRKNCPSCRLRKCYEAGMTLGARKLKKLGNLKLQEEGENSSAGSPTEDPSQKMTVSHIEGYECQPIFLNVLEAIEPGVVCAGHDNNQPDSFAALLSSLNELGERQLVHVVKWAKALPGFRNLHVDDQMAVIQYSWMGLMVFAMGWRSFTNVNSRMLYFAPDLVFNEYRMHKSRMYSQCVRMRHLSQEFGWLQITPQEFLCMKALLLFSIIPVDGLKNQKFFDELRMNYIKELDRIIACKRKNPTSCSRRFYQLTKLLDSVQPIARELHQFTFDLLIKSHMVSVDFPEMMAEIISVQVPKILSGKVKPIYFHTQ

[4] = DRUGMATRIX: Atrial Natriuretic Factor (ANF) radioligand binding (ligand: [125I] ANF (rat)); assay type: cell membranes, Cavia porcellus, Dunkin-Hartley, Adrenal gland, Membrane; settings: Not Active = under 50% inhibition at 10 µM

| Compound | IC50 [1] | Ki [1] | IC50 [2] | IC50 [3] | IC50 [4] | Ki [4] | IC50 ([2]; read-out: IC50) [nM] | Ki ([2]; read-out: Ki) [nM] | Ki [3] | Ki [2] |
| --- | --- | --- | --- | --- | --- | --- | --- | --- | --- | --- |
| Nc1ccc2c3c(cccc13)C(=O)NC2=O | Not Active | Not Active | Not Active | Not Active | Not Active | Not Active |  |  |  |  |
| O=c1cnn([C@@H]2O[C@H](CO)[C@@H](O)[C@H]2O)c(=O)[nH]1 [6-AZAURIDINE] | Not Active | Not Active | Not Active | Not Active | Not Active | Not Active |  |  |  |  |
| CCC1(CCC(C)C)C(=O)NC(=O)NC1=O [AMOBARBITAL] | Not Active | Not Active | Not Active | Not Active | Not Active | Not Active |  |  |  |  |
| CC(C(=O)O)c1ccc2oc(-c3ccc(Cl)cc3)nc2c1 (centres undefined) [BENOXAPROFEN] | Not Active | Not Active | Not Active | Not Active | Not Active | Not Active |  |  |  |  |
| CN(C)[C@@H]1C(O)=C(C(N)=O)C(=O)[C@@]2(O)C(O)=C3C(=O)c4c(O)ccc(Cl)c4[C@@](C)(O)[C@H]3C[C@@H]12 [CHLORTETRACYCLINE] | Not Active | Not Active | Not Active | Not Active | Not Active | Not Active |  |  |  |  |
| O=C1CN=C(c2ccccc2Cl)c2cc([N+](=O)[O-])ccc2N1 [CLONAZEPAM] | Not Active | Not Active | Not Active | Not Active | Not Active | Not Active |  |  |  |  |
| C[C@@H]1CC[C@@]2(OC1)O[C@H]1[C@@H](O)[C@H]3[C@@H]4CC[C@H]5C[C@@H](O[C@@H]6O[C@H](CO)[C@H](O[C@@H]7O[C@H](CO)C(O)[C@H](O[C@@H]8OC[C@@H](O)[C@H](O)[C@H]8O)[C@H]7O[C@@H]7O[C@H](CO)[C@H](O)[C@H](O[C@@H]8O[C@H](CO)[C@@H](O)[C@H](O)[C@H]8O)[C@H]7O)[C@H](O)[C@H]6O)[C@H](O)C[C@]5(C)[C@H]4CC[C@]3(C)[C@H]1[C@@H]2C (some centres undefined) [DIGITONIN] | Not Active | Not Active | Not Active | Not Active | Not Active | Not Active |  |  |  |  |
| C[C@@H](CO)NC(=O)[C@@H]1C=C2c3cccc4[nH]cc(c34)C[C@H]2N(C)C1 [ERGONOVINE] | Not Active | Not Active | Not Active | Not Active | Not Active | Not Active |  |  |  |  |
| COc1ccc2c3c1O[C@H]1C[C@@H](O)C=C[C@@]31CCN(C)C2 [GALANTAMINE] | Not Active | Not Active | Not Active | Not Active | Not Active | Not Active |  |  |  |  |
| CC(C)=CCC/C(C)=C/CO [GERANIOL] | Not Active | Not Active | Not Active | Not Active | Not Active | Not Active |  |  |  |  |
| CC(C)NNC(=O)c1ccncc1 [IPRONIAZID] | Not Active | Not Active | Not Active | Not Active | Not Active | Not Active |  |  |  |  |
| O=C(O)c1cccnc1Nc1cccc(C(F)(F)F)c1 [NIFLUMIC ACID] | Not Active | Not Active | Not Active |  | Not Active | Not Active |  |  |  |  |
| COC(=O)Nc1nc2ccc(C(=O)c3cccs3)cc2[nH]1 [NOCODAZOLE] | Not Active | Not Active | Not Active |  | Not Active | Not Active |  |  |  |  |
| COC(=O)Nc1nc2ccc([S+]([O-])c3ccccc3)cc2[nH]1 (centres undefined) [OXFENDAZOLE] | Not Active | Not Active | Not Active |  | Not Active | Not Active |  |  |  |  |
| CC(=O)O[C@H]1C(=O)[C@@]2(C)[C@H]([C@H](OC(=O)c3ccccc3)[C@]3(O)C[C@H](OC(=O)[C@H](O)[C@@H](NC(=O)c4ccccc4)c4ccccc4)C(C)=C1C3(C)C)[C@]1(OC(C)=O)CO[C@@H]1C[C@@H]2O [PACLITAXEL] | Not Active | Not Active | Not Active | Not Active | Not Active | Not Active |  |  |  |  |
| C[n+]1ccc(-c2cc[n+](C)cc2)cc1.[Cl-].[Cl-] [PARAQUAT DICHLORIDE] | Not Active | Not Active | Not Active | Not Active | Not Active | Not Active |  |  |  |  |
| CC(C)NCC(O)COc1cccc2[nH]ccc12 (centres undefined) [PINDOLOL] | Not Active | Not Active | Not Active | Not Active | Not Active | Not Active |  |  |  |  |
| CCn1cc(C(=O)O)c(=O)c2cnc(N3CCCC3)nc21 [PIROMIDIC ACID] | Not Active | Not Active | Not Active |  | Not Active | Not Active |  |  |  |  |
| C[n+]1ccccc1/C=N/O.[Cl-] [PRALIDOXIME CHLORIDE] | Not Active | Not Active | Not Active |  | Not Active | Not Active |  |  |  |  |
| C[C@]12C=CC(=O)C=C1CC[C@@H]1[C@@H]2[C@@H](O)C[C@@]2(C)[C@H]1CC[C@]2(O)C(=O)CO [PREDNISOLONE] | Not Active | Not Active | Not Active |  | Not Active | Not Active |  |  |  |  |
| CCCN(CCC)S(=O)(=O)c1ccc(C(=O)O)cc1 [PROBENECID] | Not Active | Not Active | Not Active | Not Active | Not Active | Not Active |  |  |  |  |
| CCCNCC(O)COc1ccccc1C(=O)CCc1ccccc1 (centres undefined) [PROPAFENONE] | Not Active | Not Active | Not Active |  | Not Active | Not Active |  |  |  |  |
| CCCOc1ccc(C(=O)OCCN(CC)CC)cc1N [PROPARACAINE] | Not Active | Not Active | Not Active |  | Not Active | Not Active |  |  |  |  |
| CC(C)c1cccc(C(C)C)c1O [PROPOFOL] | Not Active | Not Active | Not Active | Not Active | Not Active | Not Active |  |  |  |  |
| C[C@@H]1O[C@@H](O[C@@H]2C=C3CC[C@@H]4[C@H](CC[C@]5(C)[C@@H](c6ccc(=O)oc6)CC[C@]45O)[C@@]3(C)CC2)[C@H](O)[C@H](O)[C@H]1O [PROSCILLARIDIN] | Not Active | Not Active | Not Active | Not Active | Not Active | Not Active |  |  |  |  |
| Oc1cccc(O)c1O [PYROGALLOL] | Not Active | Not Active | Not Active |  | Not Active | Not Active |  |  |  |  |
| AURANOFIN | Not Active | Not Active |  | Not Active | Not Active | Not Active | 1690 | 954 | Not Active |  |
| GADOPENTETATE DIMEGLUMINE | Not Active | Not Active | Not Active | Not Active | Not Active | Not Active |  |  | Not Active | Not Active |
| GENTAMICIN | Not Active | Not Active | Not Active | Not Active | Not Active | Not Active |  |  | Not Active | Not Active |
| GRAMICIDIN | Not Active | Not Active | Not Active | Not Active | Not Active | Not Active |  |  | Not Active | Not Active |
